Measurements published in patent EP2149558A1, “5-[(3,3,3-Trifluoro-2-hydroxy-1-arylpropyl)amino-1-arylquinolin-2-ones, a process for their production and their use as anti-inflammatory agents” (Bayer Schering Pharma Aktiengesellschaft, priority 2008, dated 2010).

Test system: secretion of cytokine IL-8 into the human monocyte cell line THP-1
Assay: inhibition of LPS-triggered IL-8 secretion in THP-1 cells (ELISA of supernatant)
Assay type: cell-based
Experimental: As an essential, molecular mechanism for the anti-inflammatory action of glucocorticoids, the GR-mediated inhibition of the transcription of cytokines, adhesion molecules, enzymes and other pro-inflammatory factors is considered. This inhibition is produced by an interaction of the GR with other transcription factors, e.g., AP-1 and NF-kappa-B (for a survey, see Cato, A. C. B., and Wade, E., BioEssays 18, 371-378, 1996).
The concentration of the cytokines was determined in the supernatant by means of commercially available ELISA kits.

COCC(O)(C(Nc1cc(F)cc2c1ccc(=O)n2-c1ccc(F)nc1)c1ccc(OC)c(F)c1Cl)C(F)(F)F (centres unmarked) [Example 2, 5-{[1-(2-Chloro-3-fluoro-4-methoxyphenyl)-3,3,3-trifluoro-2-hydroxy-2-(methoxymethyl)propyl]amino}-7-fluoro-1-(6-fluoropyridin-3-yl)-1H-quinolin-2-one]
IC50 (Homo sapiens, inhibition of LPS-triggered IL-8 secretion, THP-1 cells, read-out: IC50(IL8)): 0.31 nM | efficacy (IL-8 inhibition, in comparison with dexamethasone as reference): 107%
